Results as given in patent US8235974B2, “Method for hair removal” (Ecole Polytechnique Federale de Lausanne (EPFL), priority 2001, dated 2012).

Columns and labels:
[1] = test system: PpIX fluorescence in human forearm or leg skin areas (hair follicle vs epidermis); assay: Macroscopic PpIX fluorescence imaging of skin after topical photosensitizer precursor; ratio r hair follicle/hairless epidermis; type: in vivo
Method: The photosensitizer precursors were formulated within standard excipients of the European Pharmacopoeia, namely unguentum leniens (UL) and unguentum hydrophilicum anionicum (UH); for some essays, the photosensitizer precursors were suspended either in pure glycerol (GLY) or in pure diethylene glycol monoethyl ether (DGME).
The formulations were administered topically on the forearm or the leg using the Tegaderm™ transparent dressing. This dressing enables the transport of water and oxygen according to the specifications of the manufacturer. This dressing was removed and the remaining formulation cleaned with pure ethanol just before the measurements performed at one single point in time. For the pharmacokinetic measurements, this dressing was removed after four hours. This removal of the Tegaderm™ during the remaining time course of the measurements induced negligible minimal alterations of the measurements due to the excellent transparency of this dressing at the wavelengths of interest.
A fluorescence imaging system illustrated by FIG. 9 was developed to assess the extent and level of PpIX production in “macroscopic” samples (parts of the human body such as: forearm, leg, back, etc.). As the goal is to assess the relative level of PpIX in the hair follicle of these samples, red light at 635 nm was chosen as PpIX fluorescence excitation wavelength. It is indeed well known that red light penetrates deeper in the cutaneous tissues than green and violet light, the later two wavelengths corresponding to larger PpIX absorption peaks (see the PpIX fluorescence excitation and emission spectra presented on the right side in FIG. 9).
As presented in the schematic diagram presented in FIG. 9, this fluorescence imaging system involves a modified 300 W D-light source 1 (Xe arc lamp from Storz, Tuttlingen, Germany) equipped with a red bandpass filter (635 nm, 20 nm FWHM; Chroma, USA). This fluorescence excitation light is coupled in a Storz 4 mm diameter light guide 2. The output of this light guide is imaged on the tissue sample 3 with a projection objective 4 (Nikon, Japan; AF Nikkor; 1:1.4 D/50 mm) to generate a homogenous spot of 2.5 cm in diameter with an irradiance of 2 mW/cm^2 at 635 nm. The distance between this projection objective 4 and the sample 3 is 25 cm. Therefore, the light beam illuminating the sample can be considered as parallel. The fluorescence is collected by another objective 5 (Fujinon, Japan; TV zoom lens; 1:1.2/12.5-75 mm; Type H6X12.5R-MD3) through a longpass filter 6 (Schott, Germany; RG665) and the image detected by a scientific CCD camera (752×582 pixels CF 8/1 Kappa, Gleichen, Germany) equipped 7 with an image intensifier (Proxifier BV 256-2FcZ-CH, Proxitronic, Bensheim, Germany). The images are captured by the 8-bits camera frame grabber and saved on the computer 8 with the “Kappa Imagebase-control” software. Image treatment is carried out using the IPLab imaging software. The spatial resolution of the complete setup has been measured with an USAF resolution target and the value we obtained in the sample plan is 3 lp/mm, the size of the image detected by the camera being 3×4 cm^2. A reference sample has been designed to enable a comparison of the relative fluorescence brightness between samples investigated at different times. This reference consists of a ruby disk (diameter: 12 mm; thickness: 1.02 mm; Type 8Sp3, Hans Stettler SA, Lyss, Switzerland) covered with a neutral density filter (T=2.27%) so that the signal obtained with this reference sample corresponds to the typical tissue fluorescence detected in our conditions.
The images were analyzed using the NIH image software. The method consisted in identifying the location of an area corresponding to: 1) one typical hair follicle and 2) epidermis presenting no skin appendages. The number of pixels involved in such an area was typically 100. […]

[2] = test system: skin area (hairs, follicles, epidermis); assay: Irradiation of treated skin areas at 635 nm: hair removal and skin reaction; type: in vivo, human; details: pure, applied 195 minutes; irradiated 200 minutes later, 30 J/cm^2 at 65 mW/cm^2 (FIG. 7A)
Method: The irradiation step of the skin areas treated by means of the various photosensitizer precursor compositions described above was conducted as follows: The irradiation of the skin was performed at 635 nm with an argon ion (Spectra-Physics, model 2020) pumped dye laser (Spectra-Physics, model 375B). The light was coupled in a frontal FD1 light distributor from Medlight SA (Ecublens, Switzerland). This distributor generated a uniform 2 cm in diameter spot. The typical irradiances and light doses were 60 to 130 mW/cm^2 and 30 to 130 J/cm^2, respectively. The irradiance was checked before and after all treatments. The light power delivered by the light distributor was determined using a power meter from Spectra-Physics (Model 407A, Mountain view, Calif., USA).
Thereafter, the skin was cleaned as indicated above. 15 minutes later, the skin area was irradiated with a light dose of 127 J/cm^2 at an irradiance of 127 mW/cm^2.
A first area was submitted to light irradiation after a waiting time equal to 200 minutes with a light dose of 61 J/cm^2 at an irradiance of 42.4 mW/cm^2. […] A second area was submitted to light irradiation 30 minutes after the end of drug administration. The light dose was 130 J/cm^2 at an irradiance of 56.6 mW/cm^2.
Thereafter, the skin was cleaned and irradiated 200 minutes later with a light dose of 30 J/cm^2 at an irradiance of 65 mW/cm^2.

skin area = details: applied 15 to 25 hours, pulsed red light, cited from earlier work
sheep = details: light irradiation about 8 to 10 hours later, 600 to 700 nm; cited from earlier work
[3] = three hours administration, 20% in DGME
[4] = three hours administration, 20% in glycerol

SMILES	ratio r (hair follicle/epidermis fluorescence) ([1]; pure, lower leg, 3 hours, normal skin temperature of 31° C.)	ratio r (hair follicle/epidermis fluorescence) ([1]; pure, lower leg, three hours at 41° C. (electric blanket))	ratio r (hair follicle/epidermis fluorescence) [1, 3]	ratio r (hair follicle/epidermis fluorescence) [1, 4]	skin reaction one day after irradiation [2]	kinetics of the hair follicle/epidermis fluorescence ratio ([1]; 20% in Unguentum Leniens, one volunteer, 0 to 1380 minutes (FIG. 10))	ratio r (fluorescence brightness hair follicle area / hairless epidermis area) ([1]; three hours after administration, in unguentum hydrophilicum)	hair removal (skin area; treatment repeated about 4 to 8 times)	duration of sunburn like side effects after an irradiation (skin area)	side effects in treated skin areas of test animals (sheep)	wool growth (sheep)
CCOCCOCCOC(=O)CCC(=O)CN [ALA-DGME, diethylene glycol monoethyl ether 5-amino-levulinate]	3.47	4.72	3.24	2.51	a clear reaction selectivity between the skin areas around follicles and the epidermis in bulk						
COC(=O)CCC(=O)CN [m-ALA, methyl ester of ALA]						decreases rapidly during the first hours and tends to unity for longer times					
Cl.NCC(=O)CCC(=O)O [ALA, 5-amino-levulinic acid hydrochloride]			2.21	1.62			1.46	effective	2 to 20 days	edema, discoloration and crusting	significantly reduced
